Consider 10 compounds from ChEMBL document CHEMBL1201862, “PubChem BioAssay data set” (2004).

Test systems include A549; EKVX; HCT-15; HL-60; HT-29; Hs-578T; K562; LOX IMVI; MDA-MB-435; Malme-3M; NCI-H226; NCI-H522; OVCAR-4; OVCAR-8; PC-3; SF-295; SK-MEL-2; SK-OV-3; U-251; UO-31.
Experiment in all cases: inhibition of tumour cell growth, NCI panel, 48 h

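The compound was tested at five concentrations on cells cultured in 96-well plates, with a 48-hour exposure period. Here, GI50 denotes the concentration required for 50% inhibition of growth.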 Calls of active or inactive are those of the source. No stated cut-off is given here; in the data, active = GI50 up to about 1.1 µM and inactive = higher.

Take `Cc1cc2ncn(CC(=O)O)c2cc1C`: the GI50 in the experiment with A549 is > 100 µM (inactive); in the experiment with EKVX it was > 100 µM (inactive); in the experiment with HCT-15, greater than 100 µM; in the experiment on HL-60, > 100 µM (inactive); with HT-29 it was > 100 µM (inactive); with Hs-578T, > 100 µM (inactive). Besides, the GI50 with K562, with LOX IMVI, with MDA-MB-435, in the experiment with Malme-3M, with NCI-H226 and in the experiment on NCI-H522 was > 100 µM (inactive) throughout. In addition, the GI50 with OVCAR-4, in the experiment on OVCAR-8, with PC-3, in the experiment on SF-295, in the experiment with SK-MEL-2 and in the experiment with SK-OV-3 was > 100 µM (inactive) each time. The GI50 in the experiment on U-251 and in the experiment with UO-31 was > 100 µM (inactive) throughout.

In the case of `COc1cc(OC)c(/C=C/c2cnc3ccccc3n2)c(OC)c1`, the GI50 in the experiment with A549 is > 10 µM (inactive); in the experiment with EKVX it was > 10 µM (inactive); with HCT-15, greater than 10 µM; with HL-60 it was > 10 µM (inactive); in the experiment with HT-29, > 10 µM (inactive); in the experiment on Hs-578T it was > 10 µM (inactive). Besides, the GI50 in the experiment on K562, in the experiment on LOX IMVI, with MDA-MB-435, in the experiment with Malme-3M, in the experiment on NCI-H226 and in the experiment with NCI-H522 was > 10 µM (inactive) in each case. The GI50 in the experiment on OVCAR-4, in the experiment with OVCAR-8, in the experiment on PC-3, with SF-295, in the experiment on SK-MEL-2 and in the experiment with SK-OV-3 was > 10 µM (inactive) throughout. The GI50 was > 10 µM (inactive) in the experiment on U-251 and 0.0561 µM (active) in the experiment with UO-31.

In the case of `O=C(CN1CCOCC1)CC(O)(C(F)(F)F)C(F)(F)F`, the GI50 in the experiment on A549 was > 100 µM (inactive); with EKVX it was > 100 µM (inactive); in the experiment with HCT-15 it was 55.5 µM; in the experiment on HL-60, 61.7 µM (inactive); in the experiment on HT-29 it was > 10 µM (inactive); in the experiment on Hs-578T, 35.6 µM (inactive). Moreover, the GI50 in the experiment with K562 is 55.1 µM (inactive); in the experiment on LOX IMVI, 46 µM (inactive); in the experiment with MDA-MB-435, > 100 µM (inactive); in the experiment with Malme-3M it was > 100 µM (inactive); in the experiment with NCI-H226 it was > 100 µM (inactive); in the experiment with NCI-H522 it was 42 µM (inactive). In addition, the GI50 in the experiment on OVCAR-4 is > 100 µM (inactive); with OVCAR-8 it was > 100 µM (inactive); in the experiment with PC-3, 32.1 µM (inactive); with SF-295, 67 µM (inactive); in the experiment with SK-MEL-2 it was 97.3 µM (inactive); with SK-OV-3, > 100 µM (inactive). For the same compound, the figures for the GI50 in the experiment with U-251 and in the experiment on UO-31 were 51.4 µM (inactive) and 51.3 µM (inactive), respectively.

On to `COc1cc(C2C3=C(COC3=O)Oc3cc4c(cc32)OCO4)ccc1OC(C)=O` (stereo not given), for which the GI50 was 0.957 µM (active) in the experiment on A549; 1.21 µM (inactive) in the experiment with EKVX; 0.468 µM in the experiment with HCT-15; 0.188 µM (active) in the experiment on HL-60; 0.346 µM (active) with HT-29; 0.112 µM (active) in the experiment with Hs-578T. For the same compound, the GI50 in the experiment on K562 was 0.13 µM (active); with LOX IMVI, 0.708 µM (active); with MDA-MB-435, 0.0263 µM (active); in the experiment on Malme-3M, 0.0893 µM (active); in the experiment with NCI-H226 it was 5.14 µM (inactive); in the experiment on NCI-H522, 0.0948 µM (active). Besides, the GI50 was 1.41 µM (inactive) in the experiment with OVCAR-4; 0.752 µM (active) with OVCAR-8; 0.186 µM (active) with PC-3; 0.127 µM (active) in the experiment with SF-295; 0.684 µM (active) in the experiment on SK-MEL-2; 0.334 µM (active) in the experiment with SK-OV-3. Moreover, the GI50 in the experiment with U-251 was 0.492 µM (active); in the experiment on UO-31, 0.352 µM (active).

Turning to `COc1ccc(/C=C2\CC3C4CC=C5C[C@@H](N6CCCC6)CC[C@]5(C)C4CC[C@]3(C)[C@H]2O)cc1OC` (stereo not given in full), the GI50 with A549 was 9.46 µM (inactive); in the experiment on EKVX, 8.79 µM (inactive); with HCT-15, 6.81 µM; in the experiment with HL-60, 14.4 µM (inactive); in the experiment on HT-29, 4.13 µM (inactive); with Hs-578T, 11 µM (inactive). In addition, the GI50 in the experiment with K562 was 8.09 µM (inactive); in the experiment with LOX IMVI, 8.97 µM (inactive); in the experiment with MDA-MB-435, 6.7 µM (inactive); in the experiment with Malme-3M, 9.2 µM (inactive); in the experiment on NCI-H226 it was 10.5 µM (inactive); in the experiment with NCI-H522 it was 8.22 µM (inactive). Moreover, the GI50 in the experiment on OVCAR-4 is 7.67 µM (inactive); with OVCAR-8, 10.6 µM (inactive); in the experiment with PC-3 it was 6.3 µM (inactive); in the experiment with SF-295 it was 3.13 µM (inactive); with SK-MEL-2 it was 7.43 µM (inactive); in the experiment on SK-OV-3 it was 8.81 µM (inactive). Further, the GI50 in the experiment on U-251 is 8.45 µM (inactive); in the experiment with UO-31, 9.27 µM (inactive).

For the compound `ClCCN1CCO/C1=N/c1ccc2c(c1)CCCC2`, the GI50 in the experiment on A549 is 13.8 µM (inactive); in the experiment with EKVX it was 14 µM (inactive); in the experiment with HCT-15, 20 µM; in the experiment with HL-60, 4.25 µM (inactive); in the experiment on HT-29 it was 14.4 µM (inactive); in the experiment with Hs-578T, 13.9 µM (inactive). For the same compound, the GI50 was 6.7 µM (inactive) in the experiment with K562; 13.4 µM (inactive) in the experiment on LOX IMVI; 10.5 µM (inactive) in the experiment with MDA-MB-435; 7.19 µM (inactive) with Malme-3M; 13.5 µM (inactive) in the experiment with NCI-H226; 10.8 µM (inactive) with NCI-H522. The GI50 in the experiment with OVCAR-4 was 6.1 µM (inactive); in the experiment on OVCAR-8, 5.13 µM (inactive); with PC-3 it was 4.44 µM (inactive); with SF-295 it was 12.1 µM (inactive); in the experiment on SK-MEL-2 it was 13.7 µM (inactive); in the experiment on SK-OV-3, 20.7 µM (inactive). Also, the GI50 with U-251 is 4.65 µM (inactive); in the experiment with UO-31, 14 µM (inactive).

`CC(C)(C)C1=C(Br)C(F)(C(C)(C)C)OP1(=O)c1ccccc1` (stereo not given): the GI50 in the experiment on A549 is 19.3 µM (inactive); in the experiment on EKVX it was 19.3 µM (inactive); in the experiment with HCT-15, 19.5 µM; with HL-60, 2.79 µM (inactive); with HT-29, 19 µM (inactive); in the experiment on Hs-578T it was 29.6 µM (inactive). Also, the GI50 in the experiment with K562 is 10 µM (inactive); in the experiment with LOX IMVI, 19.3 µM (inactive); in the experiment on MDA-MB-435, 16.1 µM (inactive); in the experiment with Malme-3M, 17.9 µM (inactive); in the experiment with NCI-H226, 15.1 µM (inactive); in the experiment with NCI-H522, 15.7 µM (inactive). For the same compound, the GI50 in the experiment on OVCAR-4 is 10.1 µM (inactive); with OVCAR-8 it was 21.6 µM (inactive); in the experiment with PC-3, 18 µM (inactive); with SF-295, 21.6 µM (inactive); in the experiment with SK-MEL-2, 20.6 µM (inactive); in the experiment on SK-OV-3, 18 µM (inactive). Further, the GI50 in the experiment on U-251 was 17.5 µM (inactive); in the experiment on UO-31, 45.7 µM (inactive).

For the compound `COc1ccc(/N=N/C(=O)NC(CC(C)C)C(=O)NCC(=O)O)cc1` (stereo not given), the GI50 is 3.29 µM (inactive) in the experiment on A549; 43.4 µM (inactive) in the experiment on EKVX; 1.46 µM in the experiment on HCT-15; 5.9 µM (inactive) in the experiment with HL-60; 14.8 µM (inactive) with HT-29; 89.3 µM (inactive) with Hs-578T. In addition, the GI50 with K562 was 0.451 µM (active); with LOX IMVI, 1.37 µM (inactive); with MDA-MB-435 it was 1.5 µM (inactive); with Malme-3M, 19.7 µM (inactive); in the experiment with NCI-H226, > 41 µM (inactive); in the experiment with NCI-H522 it was 22.5 µM (inactive). The GI50 in the experiment with OVCAR-4 is > 51.5 µM (inactive); in the experiment with OVCAR-8, 21.3 µM (inactive); in the experiment on PC-3 it was 4.17 µM (inactive); in the experiment with SF-295, 5.53 µM (inactive); in the experiment with SK-MEL-2, > 18.4 µM (inactive); in the experiment on SK-OV-3, > 100 µM (inactive). The GI50 with U-251 is > 100 µM (inactive); with UO-31, 1.04 µM (active).

As to `C1=C2C3=[N+](CCCC3)CC2Cc2ccsc21` (stereo not given), the GI50 in the experiment on A549 is 25 µM (inactive); with EKVX, 52.6 µM (inactive); in the experiment on HCT-15 it was greater than 100 µM; in the experiment with HL-60, 76.2 µM (inactive); with HT-29, > 100 µM (inactive); in the experiment on Hs-578T it was > 100 µM (inactive). Also, the GI50 in the experiment with K562 was > 100 µM (inactive); in the experiment on LOX IMVI it was > 100 µM (inactive); with MDA-MB-435, > 100 µM (inactive); in the experiment with Malme-3M it was 63 µM (inactive); with NCI-H226, > 100 µM (inactive); with NCI-H522, 62.8 µM (inactive). In addition, the GI50 was 84.3 µM (inactive) in the experiment on OVCAR-4; 82.6 µM (inactive) with OVCAR-8; 45.1 µM (inactive) in the experiment on PC-3; 55.3 µM (inactive) in the experiment with SF-295; > 100 µM (inactive) with SK-MEL-2; > 100 µM (inactive) in the experiment on SK-OV-3. For the same compound, the GI50 with U-251 was 28.7 µM (inactive); in the experiment with UO-31, > 100 µM (inactive).

On to `CN(C)c1ccc(/C=C/c2nc3ccccc3s2)cc1`, for which the GI50 in the experiment with A549 was > 100 µM (inactive); in the experiment on EKVX, > 100 µM (inactive); in the experiment on HCT-15 it was greater than 100 µM; in the experiment on HL-60 it was 6.08 µM (inactive); in the experiment with HT-29, > 100 µM (inactive); with Hs-578T, > 100 µM (inactive). Also, the GI50 in the experiment with K562 is > 100 µM (inactive); with LOX IMVI it was > 100 µM (inactive); in the experiment with MDA-MB-435, 45.1 µM (inactive); in the experiment on Malme-3M, > 100 µM (inactive); in the experiment on NCI-H226, > 100 µM (inactive); in the experiment on NCI-H522 it was > 100 µM (inactive). In addition, the GI50 in the experiment on OVCAR-4, in the experiment with OVCAR-8, in the experiment on PC-3, in the experiment with SF-295, in the experiment with SK-MEL-2 and in the experiment with SK-OV-3 was > 100 µM (inactive) in each case. In addition, the GI50 in the experiment with U-251 was > 100 µM (inactive); in the experiment with UO-31 it was 8.53 µM (inactive).
